What was measured:
[1] = Body weight in leptin-receptor deficient db/db mice; format: in vivo
Description: FIG. 15A. Groups of 10 db/db mice were given either 3 or 5 mg/kg of prieurianin i.p. daily for 30 days.
(§1) The effects of prieurianin were tested in three additional mouse models of obesity including the genetically hyperinsulinemic leptin-receptor deficient db/db, the Ceacam−/− glucose intolerant/diabetic, and the diet-induced obese mice. Prieurianin was administered intraperitoneally (i.p.) to 12-14 week-old db/db mice daily (3 or 5 mg/kg) for 30 days. The diet-induced obese Ceacam−/− diabetic mice were fed a high fat diet for 4 weeks for fattening, followed by prieurianin treatment (3 or 5 mg/kg) for 3 weeks. Vehicle treated controls received equivolume injections of Captisol (CyDex Inc., Lenexa, Kans.). Body weight and food intake were measured every three days, and blood samples were collected at the end of the experiment.

PLTP [2] = assay: Serum PLTP protein by Western blot in normal C57BL/6J mice; format: in vivo; conditions: normal C57BL/6J mice, 0, 2, 5 and 10 mg/kg
Description: (§2) FIG. 10. Release of adiponectin and PLTP by preadipocytes and adipocytes, and in serum of normal mice. Preadipocytes (B and D) were treated with 2 μM of prieurianin and media collected after 36 hrs for Western blot analysis of either adiponectin (A and B) or PLTP (C and D). Alternatively, five days following differentiation, conditioned media of adipocyets (A and C) were collected for Western analysis. E. Serum of normal C57BL/6J mice given prieurianin or topotecan (0, 2, 5, and 10 mg/kg) was analyzed by Western blot for PLTP.

PLTP [3] = assay: PLTP release into conditioned media (Western blot); format: cell-based
Description: as §2
The expression and secretion of PLTP by preadipocytes and adipocytes was also assessed. Thus, preadipocytes produced and released both the low and the high molecular weight forms of PLTP, while adipocytes secreted only the low molecular weight form (see FIGS. 10C and 10D) into the conditioned media.

PLTP promoter = assay: PLTP-promoter luciferase reporter in HepG2 and transgenic HepG2/PLTPpLuc cells; format: cell-based, human; conditions: luciferase reporter, HepG2 or HepG2/PLTPpLuc cells
Text: FIG. 2A. A 1.5 Kb PLTP promoter fused to a luciferase reporter was transactivated by topotecan dose-dependently.
FIG. 2B. Activation of PLTP promoter by topotecan in HepG2 transgenic cells containing the PLTP-promoter luciferase reporter gene fused to the neomycin selectable marker cassette and stably transfected into HepG2 cells to generate the transgenic line (Top panel). Dose-dependent induction of PLTP promoter by topotecan (Bottom panel). Results are the means S.E. of three experiments after normalization with Renilla luciferase.
FIG. 3A. Dose-dependent transactivation of the PLTP promoter by prieurianin in the HepG2 transgenic cells. Results are the means S.E. of three experiments after normalization with Renilla luciferase.
FIG. 3B. […] 1, Control; 2. […] Results are the means±S.E. of triplicate experiments.
FIG. 11. Transactivation of PLTP promoter by cytotoxic and non-cytotoxic drugs. Survey of transactivation of the PLTP promoter by various cytotoxic and non-cytotoxic drugs in the HepG2 transgenic cells was conducted. Results are the means S.E. of three experiments.
FIG. 12. Effects of trichostatin A (TSA) on transactivation of PLTP promoter by prieurianin. Dose response activation of PLTP promoter by prieurianin either in the presence or the absence of 200 nM TSA. Results are the means S.E. of three experiments.
To determine whether non-cytotoxic small molecules could induce PLTP expression, the inventor herein subcloned the PLTP-promoter luciferase reporter into a vector containing a neomycin (G418)-resistance selectable marker and generated a transgenic HepG2 cell line, which harbors the PLTP-promoter luciferase reporter, by stable gene transfection and selection with G418.
The transgenic cells were then screened with a library of small molecules derived from natural products.

NIH-3T3/L1 preadipocytes [4] = assay: Differentiation of NIH-3T3/L1 preadipocytes into adipocytes (oil red O or Nile Red staining); format: cell-based
Description: FIG. 7. […] NIH-3T3/L1 cells were induced into differentiation and simultaneously treated with 2 μM of prieurianin. Differentiated cells were stained with oil red O—FIG. 7A, undifferentiated control.
Histogram represents A510 nm absorbance of oil red O stain isopropanol extracts from cells. Results are means±S.E. of triplicate experiments.
FIG. 19. Effects of bufalin on preadipocyte differentiation, and dedifferentiation/delipidation in adipo-cytes. NIH-3T3/L1 cells were induced into differentiation and simultaneously treated with either 1 μM of bufalin or 2 μM of prieurianin. Differentiated cells were stained with Nile Red. Alternatively, preadipocytes were induced into differentiation and five days following differentiation, cells were treated with either 1 μM of bufalin or 2 μM of prieurianin for an additional five days and followed by staining with Nile Red. Stained cells were evaluated by fluorescence microscopy.
To determine the effects of prieurianin on the differentiation of preadipocytes to adipocytes, the NIH-3T3/L1 preadipocytes were treated with or without the drug at the same time when induction of differentiation was initiated.

NIH-3T3/L1 preadipocytes [5] = format: cell-based; conditions: 2 μM
Description: FIG. 7D. Flow cytometric analysis of annexin V binding to phosphatidylserine, apoptotic cells are on the upper right quadrant. All experiments were conducted in triplicate.

[6] = format: in vivo, mice
Description: FIG. 15B. Genetically diabetic Ceacam^−/− knockout mice were fed high fat diet for fattening for 4 weeks followed by daily prieurianin treatment (3 or 5 mg/kg) for 21 days. Vehicle treated db/db and Ceacam^−/− mice were given equivolume of Captisol. Results are the means S.E. of 10 animals per group.
as §1

In the case of `C=C1[C@@H]([C@@]2(C)[C@@H](OC(C)=O)CC(=O)O[C@](C)(COC(C)=O)[C@@H]2C(=O)OC)[C@@H](OC=O)[C@H](OC(=O)[C@H](O)[C@H](C)CC)[C@@]2(C)[C@H](c3ccoc3)CC(=O)[C@]12O` [prieurianin], the weight loss ([1]; 3 or 5 mg/kg i.p. daily) is reported as “No weight loss was observed”, the “attenuation of weight gain” value ([1]; over three weeks, vs untreated or vehicle-treated controls) is reported as 50% and the “serum PLTP protein levels” value (PLTP [2]) is reported as “a rise in the serum PLTP protein levels”. The “release of PLTP by adipocytes” value (PLTP [3]; adipocytes) was “induced an increase in the release of only the low molecular weight form of PLTP”, the “release of PLTP by preadipocytes” value (PLTP [3]; preadipocytes) was “release of the low but not the high molecular form of PLTP was reduced” and the “transactivation of PLTP promoter” value (PLTP promoter) was “exhibited the strongest transactivation of the PLTP promoter, and showed induction of PLTP in a dose-dependent manner”. The preadipocytes differentiation (NIH-3T3/L1 preadipocytes [4]; 2 μM, in the absence of staurosporine) was “almost completely inhibited preadipocytes differentiation”, the “differentiation of preadipocytes into lipid accumulating adipocytes” value (NIH-3T3/L1 preadipocytes [4]; treated at induction of differentiation, oil red O) was “dose-dependently prevented the differentiation of preadipocytes” and the “apoptosis (annexin V binding to phosphatidylserine)” value (NIH-3T3/L1 preadipocytes [5]) was “did not differentially induce apoptosis”. For the same compound, the “body weight relative to pre-fattening” value ([6]; 3 mg/kg treated group) was “Body weight returned to pre-fattening level”, the toxicity ([6]; Ceacam−/− mice given 5 mg/kg) was “euthanized after 14 days of treatment due to severe weight loss and unknown toxicity” and the “subcutaneous or visceral fats in postmortem analysis” value ([6]; Ceacam−/− mice given 5 mg/kg, relative to controls) was “Little subcutaneous or visceral fats were observed”. The body weight loss ([6]; diet-induced obese Ceacam−/− mice, 3 or 5 mg/kg) was 20-26% and the reduced food intake ([6]; diet-induced obese Ceacam−/− mice, compared to controls) was > 50%.

Source: patent US20100284925A1, “Small Molecule Intervention for Obesity” (priority 2006, published 2010)
